Legend:
[1] = target: T1, human α1G T-type channels (Homo sapiens, UniProt O43497); test: T-type calcium channel block, whole cell patch clamp (α1G); type: cell-based; conditions: HEK cells stably expressing human α1G; mainly non-inactivated protocol; values above 10 μM represented as 10 μM, values below 0.30 μM represented as 0.30 μM
T1 construct: expressed in transfected cells; host or cells: HEK 293
Description: (§1) T-type calcium channel blocking activity was assayed in human embryonic kidney cells, HEK 293, stably transfected with the T-type calcium channel subunits. Briefly, cells were cultured in Dulbecco's modified eagle medium (DMEM) supplemented with 10% fetal bovine serum, 200 U/ml penicillin and 0.2 mg/ml streptomycin at 37° C. with 5% CO2. At 85% confluency cells were split with 0.25% trypsin/1 mM EDTA and plated at 10% confluency on glass coverslips. At 12 hours the medium was replaced and the cells stably transfected using a standard calcium phosphate protocol and the appropriate calcium channel cDNA's. Fresh DMEM was supplied and the cells transferred to 28° C./5% CO2. Cells were incubated for 1 to 2 days prior to whole cell recording.
(§2) Standard patch-clamp techniques were employed to identify blockers of T-type currents. Briefly, previously described HEK cell lines stably expressing human α1G, α1H and α1I T-type channels were used for all the recordings (passage #: 4-20, 37° C., 5% CO2). Whole cell patch clamp experiments were performed using an Axopatch 200B amplifier (Axon Instruments, Burlingame, Calif.) linked to a personal computer equipped with pCLAMP software. Data were analyzed using Clampfit (Axon Instruments) and SigmaPlot 4.0 (Jandel Scientific). To obtain T-type currents, plastic dishes containing semi-confluent cells were positioned on the stage of a ZEISS AXIOVERT S100 microscope after replacing the culture medium with external solution (see below). Whole-cell patches were obtained using pipettes (borosilicate glass with filament, O.D.: 1.5 mm, I.D.: 0.86 mm, 10 cm length), fabricated on a SUTTER P-97 puller with resistance values of ˜5 MΩ (see below for internal solution).
(§3) In the non-inactivating protocol, the holding potential is set at −110 mV and with a pre-pulse at −100 mV for 1 second prior to the test pulse at −40 mV for 50 ms. In the inactivation protocol, the pre-pulse is at approximately −85 mV for 1 second, which inactivates about 15% of the T-type channels.
(§4) Test compounds were dissolved in external solution, 0.1-0.01% DMSO. After 10 min rest, they were applied by gravity close to the cell using a WPI microfil tubing. The “non-inactivated” pre-pulse was used to examine the resting block of a compound. The “inactivated” protocol was employed to study voltage-dependent block. However, the initial data shown below were mainly obtained using the non-inactivated protocol only. . IC50 values are shown for various compounds of the invention in Table 4 for the drug of interest. Values are shown in μM and values above 10 μM are simply represented as 10 μM.

[2] = target: T2, human α1H T-type channels (Homo sapiens, UniProt O95180); test: T-type calcium channel block, whole cell patch clamp (α1H); type: cell-based; conditions: HEK cells stably expressing human α1H; mainly non-inactivated protocol; values above 10 μM represented as 10 μM
T2 construct: expressed in transfected cells; host or cells: HEK 293
Description: as §1, §2, §3, §4

T1 sequence (O43497 whole entry): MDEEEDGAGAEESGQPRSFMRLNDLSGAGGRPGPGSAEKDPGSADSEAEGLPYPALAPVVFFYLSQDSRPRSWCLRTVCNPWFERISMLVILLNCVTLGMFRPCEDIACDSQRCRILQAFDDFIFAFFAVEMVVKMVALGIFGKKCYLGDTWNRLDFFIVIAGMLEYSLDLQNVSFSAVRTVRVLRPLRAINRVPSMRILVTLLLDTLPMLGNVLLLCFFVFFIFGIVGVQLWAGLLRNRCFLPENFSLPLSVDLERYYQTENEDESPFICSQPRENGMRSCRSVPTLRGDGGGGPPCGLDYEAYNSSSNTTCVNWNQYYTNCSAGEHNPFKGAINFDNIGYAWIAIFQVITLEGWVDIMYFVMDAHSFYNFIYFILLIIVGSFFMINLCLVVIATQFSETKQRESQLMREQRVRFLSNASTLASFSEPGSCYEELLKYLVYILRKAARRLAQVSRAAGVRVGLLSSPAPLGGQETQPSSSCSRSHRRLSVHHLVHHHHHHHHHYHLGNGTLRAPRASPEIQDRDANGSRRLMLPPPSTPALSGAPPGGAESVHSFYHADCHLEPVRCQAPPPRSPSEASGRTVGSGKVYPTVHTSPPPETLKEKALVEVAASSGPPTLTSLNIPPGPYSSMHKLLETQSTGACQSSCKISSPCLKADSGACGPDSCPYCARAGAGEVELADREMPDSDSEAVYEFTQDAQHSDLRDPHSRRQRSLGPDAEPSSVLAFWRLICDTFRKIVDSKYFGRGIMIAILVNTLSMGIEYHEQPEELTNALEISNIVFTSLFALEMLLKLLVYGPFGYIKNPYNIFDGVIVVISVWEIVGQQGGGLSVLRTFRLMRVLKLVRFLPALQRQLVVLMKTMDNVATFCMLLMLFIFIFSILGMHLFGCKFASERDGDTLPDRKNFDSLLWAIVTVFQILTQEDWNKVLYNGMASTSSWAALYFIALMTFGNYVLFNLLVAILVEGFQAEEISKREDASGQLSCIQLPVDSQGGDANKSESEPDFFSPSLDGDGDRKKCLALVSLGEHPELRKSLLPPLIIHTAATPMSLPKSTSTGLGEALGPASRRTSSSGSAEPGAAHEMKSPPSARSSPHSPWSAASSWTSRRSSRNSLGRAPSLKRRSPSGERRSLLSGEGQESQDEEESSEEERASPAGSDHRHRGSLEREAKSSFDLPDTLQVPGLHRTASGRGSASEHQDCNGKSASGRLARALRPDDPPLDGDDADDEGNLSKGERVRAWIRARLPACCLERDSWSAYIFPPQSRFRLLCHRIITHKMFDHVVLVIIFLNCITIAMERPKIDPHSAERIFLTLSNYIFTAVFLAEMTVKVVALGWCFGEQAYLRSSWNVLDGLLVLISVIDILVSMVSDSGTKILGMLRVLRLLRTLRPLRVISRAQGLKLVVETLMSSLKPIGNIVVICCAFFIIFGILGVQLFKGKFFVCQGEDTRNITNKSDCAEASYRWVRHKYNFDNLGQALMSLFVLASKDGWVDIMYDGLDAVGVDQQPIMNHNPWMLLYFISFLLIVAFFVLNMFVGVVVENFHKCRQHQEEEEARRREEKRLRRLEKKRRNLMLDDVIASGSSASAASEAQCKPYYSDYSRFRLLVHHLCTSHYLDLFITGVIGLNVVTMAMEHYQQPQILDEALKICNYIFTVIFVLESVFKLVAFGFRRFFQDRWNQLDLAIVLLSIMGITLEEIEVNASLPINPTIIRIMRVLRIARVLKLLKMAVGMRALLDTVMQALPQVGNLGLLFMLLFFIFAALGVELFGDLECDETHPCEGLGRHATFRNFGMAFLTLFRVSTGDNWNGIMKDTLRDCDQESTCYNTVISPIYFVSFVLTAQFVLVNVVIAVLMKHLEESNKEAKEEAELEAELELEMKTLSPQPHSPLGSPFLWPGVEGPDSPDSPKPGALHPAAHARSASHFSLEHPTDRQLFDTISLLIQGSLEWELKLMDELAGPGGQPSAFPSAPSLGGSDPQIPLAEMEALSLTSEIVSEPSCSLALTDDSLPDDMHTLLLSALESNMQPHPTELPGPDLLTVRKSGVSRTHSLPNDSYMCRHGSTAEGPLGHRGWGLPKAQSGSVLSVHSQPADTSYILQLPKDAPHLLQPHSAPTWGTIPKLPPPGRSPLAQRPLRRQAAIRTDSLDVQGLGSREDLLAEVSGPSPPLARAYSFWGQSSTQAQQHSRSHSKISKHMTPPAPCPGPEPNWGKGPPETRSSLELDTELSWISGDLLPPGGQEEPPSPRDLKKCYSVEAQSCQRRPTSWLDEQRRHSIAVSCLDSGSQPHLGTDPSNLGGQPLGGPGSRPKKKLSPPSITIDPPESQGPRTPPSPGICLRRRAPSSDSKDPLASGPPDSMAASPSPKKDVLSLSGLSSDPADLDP
T2 sequence (O95180 whole entry): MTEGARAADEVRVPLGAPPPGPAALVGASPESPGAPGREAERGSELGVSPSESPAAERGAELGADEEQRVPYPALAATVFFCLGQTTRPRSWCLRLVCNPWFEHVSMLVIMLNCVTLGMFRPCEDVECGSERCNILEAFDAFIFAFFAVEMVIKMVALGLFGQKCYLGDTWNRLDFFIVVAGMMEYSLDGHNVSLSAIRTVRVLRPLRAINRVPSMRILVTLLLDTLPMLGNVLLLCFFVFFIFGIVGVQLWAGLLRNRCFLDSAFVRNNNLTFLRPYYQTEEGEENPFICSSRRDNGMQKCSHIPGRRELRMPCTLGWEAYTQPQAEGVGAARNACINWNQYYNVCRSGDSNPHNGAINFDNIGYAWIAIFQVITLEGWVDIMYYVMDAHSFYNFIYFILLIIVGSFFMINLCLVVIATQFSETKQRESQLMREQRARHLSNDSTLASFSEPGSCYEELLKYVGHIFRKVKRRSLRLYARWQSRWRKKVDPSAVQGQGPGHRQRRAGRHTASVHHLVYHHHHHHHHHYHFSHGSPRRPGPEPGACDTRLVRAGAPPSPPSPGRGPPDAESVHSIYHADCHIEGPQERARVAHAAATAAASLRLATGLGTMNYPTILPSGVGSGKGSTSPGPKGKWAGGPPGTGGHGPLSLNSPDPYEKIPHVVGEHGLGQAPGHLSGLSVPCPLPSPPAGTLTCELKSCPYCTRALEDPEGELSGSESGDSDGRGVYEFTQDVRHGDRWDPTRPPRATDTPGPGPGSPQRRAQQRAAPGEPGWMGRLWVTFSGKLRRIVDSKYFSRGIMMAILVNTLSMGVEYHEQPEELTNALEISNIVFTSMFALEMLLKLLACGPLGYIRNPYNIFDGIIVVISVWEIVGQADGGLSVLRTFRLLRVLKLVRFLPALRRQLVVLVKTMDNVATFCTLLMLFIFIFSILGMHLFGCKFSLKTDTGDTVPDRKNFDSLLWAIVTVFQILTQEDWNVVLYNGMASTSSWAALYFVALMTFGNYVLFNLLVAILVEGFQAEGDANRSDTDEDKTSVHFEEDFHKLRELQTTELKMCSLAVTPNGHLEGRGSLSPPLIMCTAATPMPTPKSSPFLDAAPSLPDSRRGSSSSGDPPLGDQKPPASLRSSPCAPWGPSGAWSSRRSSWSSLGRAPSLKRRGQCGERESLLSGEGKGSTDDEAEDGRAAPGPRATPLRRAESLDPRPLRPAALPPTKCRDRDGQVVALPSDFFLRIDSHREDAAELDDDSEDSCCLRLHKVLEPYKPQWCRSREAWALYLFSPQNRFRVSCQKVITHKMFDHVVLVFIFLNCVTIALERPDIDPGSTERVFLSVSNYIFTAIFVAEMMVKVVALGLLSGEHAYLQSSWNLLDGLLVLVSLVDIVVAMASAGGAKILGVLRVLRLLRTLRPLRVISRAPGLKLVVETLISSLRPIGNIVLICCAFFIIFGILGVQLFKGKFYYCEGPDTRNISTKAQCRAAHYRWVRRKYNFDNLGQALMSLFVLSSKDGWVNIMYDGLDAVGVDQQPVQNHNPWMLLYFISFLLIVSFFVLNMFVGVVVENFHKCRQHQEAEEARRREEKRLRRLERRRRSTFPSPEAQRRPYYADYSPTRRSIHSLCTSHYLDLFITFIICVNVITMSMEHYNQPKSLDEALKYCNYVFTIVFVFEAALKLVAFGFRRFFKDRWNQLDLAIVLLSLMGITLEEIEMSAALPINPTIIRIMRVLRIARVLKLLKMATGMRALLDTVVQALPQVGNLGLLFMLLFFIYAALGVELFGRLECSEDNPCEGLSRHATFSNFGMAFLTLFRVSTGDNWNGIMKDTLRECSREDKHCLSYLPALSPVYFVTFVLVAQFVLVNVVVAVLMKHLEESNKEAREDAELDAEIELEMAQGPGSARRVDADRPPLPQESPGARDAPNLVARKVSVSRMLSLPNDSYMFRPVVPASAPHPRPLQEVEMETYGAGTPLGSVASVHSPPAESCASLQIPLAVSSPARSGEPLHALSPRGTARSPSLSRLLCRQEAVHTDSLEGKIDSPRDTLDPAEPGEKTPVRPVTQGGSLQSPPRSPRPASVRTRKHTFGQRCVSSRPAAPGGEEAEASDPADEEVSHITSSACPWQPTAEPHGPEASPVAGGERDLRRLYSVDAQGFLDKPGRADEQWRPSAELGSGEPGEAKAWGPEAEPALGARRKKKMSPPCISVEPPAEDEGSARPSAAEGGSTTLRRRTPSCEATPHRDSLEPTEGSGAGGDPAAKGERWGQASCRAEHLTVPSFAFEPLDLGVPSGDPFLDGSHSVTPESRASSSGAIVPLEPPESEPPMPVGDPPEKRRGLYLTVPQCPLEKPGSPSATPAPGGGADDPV

| IC50 [1] [nM] | IC50 [2] [nM] | SMILES |
| --- | --- | --- |
| 2350 | 650 | CC(C)NC(=O)CN[C@H]1CC[C@H](CNC(=O)c2cc(C(F)(F)F)cc(C(F)(F)F)c2)CC1 [Compound 74, N-((trans-4-(2-(isopropylamino)-2-oxoethylamino)cyclohexyl)methyl)-3,5-bis(trifluoromethyl)benzamide] |
| 2240 | 820 | CC(C)(C)NC(=O)CN[C@H]1CC[C@@H](CNC(=O)c2cccc(Br)c2)CC1 [Compound 183, 3-bromo-N-(((1s,4s)-4-(2-(tert-butylamino)-2-oxoethylamino)cyclohexyl)methyl)benzamide] |
| ≤ 300 | 560 | CCC1CCCN1C(=O)CN[C@H]1CC[C@H](CNC(=O)c2cc(C(F)(F)F)cc(C(F)(F)F)c2)CC1 (stereo partly drawn) [Compound 68, N-((trans-4-(2-(2-ethylpyrrolidin-1-yl)-2-oxoethylamino)cyclohexyl)methyl)-3,5-bis(trifluoromethyl)benzamide] |
| 2370 | 3420 | CC(C)(C)NC(=O)CN[C@H]1CC[C@@H](CNC(=O)c2cccc(C(F)(F)F)c2)CC1 [Compound 182, N-(((1s,4s)-4-(2-(tert-butylamino)-2-oxoethylamino)cyclohexyl)methyl)-3-(trifluoromethyl)benzamide] |
| 3470 | 3860 | Cc1cc(CNC[C@H]2CC[C@H](NC(=O)c3cc(C(F)(F)F)cc(C(F)(F)F)c3)CC2)no1 [Compound 90, N-(trans-4-(((5-methylisoxazol-3-yl)methylamino)methyl)cyclohexyl)-3,5-bis(trifluoromethyl)benzamide] |
| 340 | 120 | CC1(NC(=O)CN[C@H]2CC[C@H](CNC(=O)c3cc(Cl)cc(Cl)c3)CC2)CCC1 [Compound 192, 3,5-dichloro-N-(((1r,4r)-4-(2-(1-methylcyclobutylamino)-2-oxoethylamino)cyclohexyl)methyl)benzamide] |
| 790 | 330 | CC(C)(C)NC(=O)CN[C@H]1CC[C@@H](CNC(=O)c2cccc(OC(F)(F)F)c2)CC1 [Compound 185, N-(((1s,4s)-4-(2-(tert-butylamino)-2-oxoethylamino)cyclohexyl)methyl)-3-(trifluoromethoxy)benzamide] |
| 830 | ≥ 10000 | NC1(C(=O)N[C@H]2CC[C@H](CC(=O)Nc3cc(C(F)(F)F)cc(C(F)(F)F)c3)CC2)CCCC1 [Compound 124, 1-amino-N-(trans-4-(2-(3,5-bis(trifluoromethyl)phenylamino)-2-oxoethyl)cyclohexyl)cyclopentanecarboxamide] |
| 4280 | 2470 | COC1CCC(N(C)C(=O)CN[C@H]2CC[C@@H](CNC(=O)c3cc(C(F)(F)F)cc(C(F)(F)F)c3)CC2)CC1 (stereo partly drawn) [Compound 50, N-((cis-4-(2-((4-methoxycyclohexyl)(methyl)amino)-2-oxoethylamino)cyclohexyl)methyl)-3,5-bis(trifluoromethyl)benzamide] |
| ≤ 300 | 1970 | O=C(NC[C@H]1CC[C@H](NCc2c(F)cccc2Cl)CC1)c1cc(C(F)(F)F)cc(C(F)(F)F)c1 [Compound 34, N-((trans-4-(2-chloro-6-fluorobenzylamino)cyclohexyl)methyl)-3,5-bis(trifluoromethyl)benzamide] |
| ≤ 300 | 370 | CC(C)(C)NC(=O)CN[C@H]1CC[C@H](CNC(=O)c2cc(C(F)(F)F)cc(C(F)(F)F)c2)CC1 [Compound 55, N-((trans-4-(2-(tert-butylamino)-2-oxoethylamino)cyclohexyl)methyl)-3,5-bis(trifluoromethyl)benzamide] |
| ≤ 300 | 330 | CCN(CC)C(=O)CN[C@H]1CC[C@@H](CNC(=O)c2cc(C(F)(F)F)cc(C(F)(F)F)c2)CC1 [Compound 41, N-((cis-4-(2-(diethylamino)-2-oxoethylamino)cyclohexyl)methyl)-3,5-bis(trifluoromethyl)benzamide] |
| 1180 | 4010 | CC(C)(C)C1CN([C@H]2CC[C@H](CNC(=O)c3cc(C(F)(F)F)cc(C(F)(F)F)c3)CC2)C(=O)O1 (stereo partly drawn) [Compound 153, N-((trans-4-(5-tert-butyl-2-oxooxazolidin-3-yl)cyclohexyl)methyl)-3,5-bis(trifluoromethyl)benzamide] |
| ≤ 300 | 710 | COc1cccc(O)c1CN[C@H]1CC[C@H](CNC(=O)c2cc(C(F)(F)F)cc(C(F)(F)F)c2)CC1 [Compound 33, N-((trans-4-(2-hydroxy-6-methoxybenzylamino)cyclohexyl)methyl)-3,5-bis(trifluoromethyl)benzamide] |
| 850 | 710 | Cc1cccc(CN[C@H]2CC[C@@H](CNC(=O)c3cc(C(F)(F)F)cc(C(F)(F)F)c3)CC2)c1O [Compound 9, N-((cis-4-(2-hydroxy-3-methylbenzylamino)cyclohexyl)methyl)-3,5-bis(trifluoromethyl)benzamide] |
| 450 | 550 | CC(C)(C)C(O)CN[C@H]1CC[C@@H](CNC(=O)c2cc(F)cc(C(F)(F)F)c2)CC1 (stereo partly drawn) [Compound 2, 3-fluoro-N-((cis-4-(2-hydroxy-3,3-dimethylbutylamino)cyclohexyl)methyl)-5-(trifluoromethyl)benzamide] |
| 1070 | 7060 | O=C(NC[C@H]1CC[C@@H](NC(=O)[C@H]2CC[C@@H](c3ccccc3)N2)CC1)c1cc(C(F)(F)F)cc(C(F)(F)F)c1 [Compound 139, (2R,5S)-N-(cis-4-((3,5-bis(trifluoromethyl)benzamido)methyl)cyclohexyl)-5-phenylpyrrolidine-2-carboxamide] |
| ≤ 300 | 2450 | O=C(NC[C@H]1CC[C@H](NCc2ccccc2O)CC1)c1cc(C(F)(F)F)cc(C(F)(F)F)c1 [Compound 25, N-((trans-4-(2-hydroxybenzylamino)cyclohexyl)methyl)-3,5-bis(trifluoromethyl)benzamide] |
| 4050 | 1600 | COc1cc(F)cc(C(=O)NC[C@H]2CC[C@H](NCC(=O)N3CCCC3(C)C)CC2)c1 [Compound 209, N-(((1r,4r)-4-(2-(2,2-dimethylpyrrolidin-1-yl)-2-oxoethylamino)cyclohexyl)methyl)-3-fluoro-5-methoxybenzamide] |
| 880 | 1530 | O=C(C[C@H]1CC[C@H](NC(=O)[C@@H]2CCCN2)CC1)Nc1cc(C(F)(F)F)cc(C(F)(F)F)c1 [Compound 119, (S)-N-(trans-4-(2-(3,5-bis(trifluoromethyl)phenylamino)-2-oxoethyl)cyclohexyl)pyrrolidine-2-carboxamide] |
| 1580 | 650 | CC1(C)CCCN1C(=O)CN[C@H]1CC[C@H](CNC(=O)c2cc(F)cc(Cl)c2)CC1 [Compound 204, 3-chloro-N-(((1r,4r)-4-(2-(2,2-dimethylpyrrolidin-1-yl)-2-oxoethylamino)cyclohexyl)methyl)-5-fluorobenzamide] |
| 5820 | 710 | COCC(C)(C)N(C)C(=O)CN[C@H]1CC[C@@H](CNC(=O)c2cc(F)cc(OC)c2)CC1 [Compound 214, 3-fluoro-5-methoxy-N-(((1s,4s)-4-(2-((1-methoxy-2-methylpropan-2-yl)(methyl)amino)-2-oxoethylamino)cyclohexyl)methyl)benzamide] |
| 460 | 1370 | Cc1cccc(CN[C@H]2CC[C@@H](CNC(=O)c3cc(F)cc(C(F)(F)F)c3)CC2)c1O [Compound 18, 3-fluoro-N-((cis-4-(2-hydroxy-3-methylbenzylamino)cyclohexyl)methyl)-5-(trifluoromethyl)benzamide] |
| 990 | 3080 | O=C(NC[C@H]1CC[C@@H](NCc2c(O)cccc2F)CC1)c1cc(F)cc(C(F)(F)F)c1 [Compound 22, 3-fluoro-N-((cis-4-(2-fluoro-6-hydroxybenzylamino)cyclohexyl)methyl)-5-(trifluoromethyl)benzamide] |
|  | 5370 | Cc1ccc(-c2csc(NC(=O)C[C@H]3CC[C@@H](NCC4(NC(=O)OC(C)(C)C)CCCC4)CC3)n2)cc1 [Compound 37] |
|  | 250 | Cc1cc(CN[C@H]2CC[C@@H](CNC(=O)c3cc(F)cc(C(F)(F)F)c3)CC2)cc(C)c1O [Compound 5, 3-fluoro-N-((cis-4-(4-hydroxy-3,5-dimethylbenzylamino)cyclohexyl)methyl)-5-(trifluoromethyl)benzamide] |
